One substance from US11760784B2, “Compositions comprising PEDF-derived short peptides and uses thereof” (BRIM Biotechnology, Inc., priority 2016, dated 2023) can be followed below.

“Also recorded” adds a separate entry of the source.

Assay [1] relates to desiccating stress-induced dry eye. The assay is described as follows: Corneal fluorescein staining in desiccating stress-induced dry eye (CEC) mice. Format: in vivo, C57BL/6 mice. How it is done:
In an animal model for dry eye diseases, mice were placed in a controlled environment chamber (CEC) to induce dry eyes as previously described (Barabino et al., 2005). Mice placed in the CEC were exposed to a relative humidity (RH)<25%, temperature of 20 to 22° C., with an airflow of 15 L/min, 12 hours per day. Non-Stressed mice were kept in a normal environment (RH >50%, no air flow, temperature of 21-23° C.) for the same duration. After 14 days, non-stressed mice were treated with vehicle, while the stressed mice were treated with either a test peptide (e.g., the 29mer PDSP) or vehicle solution (Vehicle group) for 5 days. Then, the cornea was examined with fluorescein staining.
Seven to 8-week-old female C57BL/6 mice were used for these experiments. Experimental procedures were approved by the Mackay Memorial Hospital Review Board and conducted according to the ARVO Statement for the Use of Animals in Ophthalmic and Vision Research.
(§1) Dry eye was induced by placing mice in a controlled environment chamber (CEC) as previously described (Barabino et al., 2005). Briefly, mice placed in the CEC were exposed to a relative humidity (RH)<25%, temperature of 20 to 22° C., and airflow of 15 L/min, 12 hours per day. Non-stressed (NS) mice without stress-induced dry eye were kept in a normal environment (RH >50%, no air flow, temperature of 21-23° C.) for the same duration. Corneal fluorescein staining and
Animals were anesthetized by an intraperitoneal injection of a mixture of zoletil (6 mg/kg) and xylazine (3 mg/kg). Corneal epithelial injury was determined by staining with topical fluorescein (Fluor-I-Strip, Ayerst Laboratories, Philadelphia, Pa.). Corneal fluorescein staining was examined with a slit-lamp biomicroscope under cobalt blue light and photographed with a digital camera. Dye staining of the cornea was scored in a manner as follows: score 0 for no punctuate staining; score 1 when less than one third of the cornea was stained; score 2 when two thirds or less was stained; and score 3 when more than two thirds was stained (Horwath-Winter J 2013).
To determine whether PDSP have therapeutic effects in a desiccating stress (DS)-induced ocular surface defects, mice were housed at controlled environment chamber (CEC) for 14 days to create ocular surface disruption. After 14 days in CEC, we used mice with fluorescence scores that are above 2 for the first experiments (FIG. 1A). Subsequently, dry eyes were treated topically with PDSP at 25-200 μM (3 times/day) or PDSP vehicle (1% CMC in BSS) for another 5 days while maintaining the same desiccating stress protocol.
To investigate whether the PDSP can suppress DS-induced corneal epithelial disruption, we applied the 14-day desiccating stress protocol to mice, and treated these mice topically with PDSP 3 times a day.

Assay [2] has the same test system. The assay is described as follows: Tear production by phenol red thread test in CEC dry eye mice. Format: in vivo, C57BL/6 mice. To be noted: CEC 14 days. How it is done:
as §1
Tear production was measured with phenol red-impregnated cotton threads (Zone-Quick; Oasis, Glendora, CA). The validity of this test in mice was performed as previously described (Dursun et al., 2002). The threads were held with jeweler forceps and placed in the lateral canthus for 60 seconds. The tear production is expressed in millimeters of thread that is wet by the tear and turned red.
To determine whether PDSP have therapeutic effects in a desiccating stress (DS)-induced ocular surface defects, mice were housed at controlled environment chamber (CEC) for 14 days to create ocular surface disruption. After 14 days in CEC, we used mice with fluorescence scores that are above 2 for the first experiments (FIG. 1A). […]

The next assay has as its system IL-6 mRNA. The assay can be described thus: Ocular IL-6 mRNA by quantitative real-time PCR in CEC dry eye mice. Type of assay: in vivo, C57BL6 mice. To be noted: CEC 14 days, then topical PDSP for 5 days. The protocol: Dry eye is associated with abnormalities in the pre-corneal tear film and subsequent inflammatory changes in the entire ocular surface including the adnexa, conjunctiva and cornea. (see, Hessen et al., “Dry eye: An Inflammatory Ocular Disease,” J. Ophthalmic Vis. Res., 2014, 9(2): 240-250). Therefore, the effects of PDSPs in corneal inflammatory responses were next examined. Briefly, C57BL6 mice were housed in CEC for 14 days (Day 0) and then treatment with PDSP or vehicle were performed for additional 5 days (Day 5). Then, mRNA levels for inflammatory factors were evaluated by quantitative real-time PCR.
The total RNA was extracted from cells using TRIzol (Invitrogen) and treated with RNase free DNase I (Qiagen, Santa Clarita, CA) to remove genomic DNA and then purified with an RNA purification kit (Dynabeads; Invitrogen). […] Quantitative real-time PCR was performed in a GeneAmp 7700 sequence detection system (Applied Biosystems, Foster City, CA). […] All determinations were measured in triplicate. The cycle threshold (Ct) values corresponded to the PCR cycle number at which fluorescence emission in real time reaches a threshold above the base-line emission were analyzed using GeneAmp 7700 SDS software. The Ct value of the PCR product of interest and a control mRNA (GAPDH) were then used to calculate relative quantities of mRNA between samples.

For “PDSP: 29mer, residues 93-121 of human PEDF: SLGAEQRTESIIHRALYYDLISSPDIHGT (SEQ ID NO:4) (listed as Homo sapiens)”, the “corneal fluorescein staining score (0 to 3)” value in assay [1] (preventive: 100 μM PDSP topically 3 times a day from beginning of 14 days in CEC, vehicle 1.7±0.3) is on record as 0.7±0.2. Also, the “corneal surface damage by fluorescein staining” value in assay [1] (therapeutic: CEC 14 days to induce dry eye, then peptide on the eyes for 5 days) is recorded as “essentially gone”. In assay [2] (then PDSP for 5 days, vehicle 4.5±0.2, day 0 3.8±0.5, non-stressed 5.4±0.4), the “tear production (cotton thread test)” value worked out at 5±0.3 mm. Moreover, the “tear production (phenol red thread), human vs mouse PDSP” value in assay [2] (then peptide for 3 days (FIG. 12), listed as human PDSP) is reported as “capable of restore; also recorded: improved tear productions to the same extent”. The “repression of ocular IL-6 mRNA expression compared to vehicle-treated group” value in the assay with IL-6 mRNA worked out at 2.0 fold.
